Data on 11 molecules can be found in paper PMC7933229 (Scientific Reports, 2021).

One assay concerns the target T1, ACE (from rabbit lung) (Oryctolagus cuniculus, UniProt P12822).
T1 construct: ACE (from rabbit lung) were obtained from Sigma-Aldrich Co; purchased Sigma-Aldrich Co. (St. Louis, MO, USA); host or cells: rabbit lung (tissue-derived enzyme)
T1 sequence (P12822 34-1310): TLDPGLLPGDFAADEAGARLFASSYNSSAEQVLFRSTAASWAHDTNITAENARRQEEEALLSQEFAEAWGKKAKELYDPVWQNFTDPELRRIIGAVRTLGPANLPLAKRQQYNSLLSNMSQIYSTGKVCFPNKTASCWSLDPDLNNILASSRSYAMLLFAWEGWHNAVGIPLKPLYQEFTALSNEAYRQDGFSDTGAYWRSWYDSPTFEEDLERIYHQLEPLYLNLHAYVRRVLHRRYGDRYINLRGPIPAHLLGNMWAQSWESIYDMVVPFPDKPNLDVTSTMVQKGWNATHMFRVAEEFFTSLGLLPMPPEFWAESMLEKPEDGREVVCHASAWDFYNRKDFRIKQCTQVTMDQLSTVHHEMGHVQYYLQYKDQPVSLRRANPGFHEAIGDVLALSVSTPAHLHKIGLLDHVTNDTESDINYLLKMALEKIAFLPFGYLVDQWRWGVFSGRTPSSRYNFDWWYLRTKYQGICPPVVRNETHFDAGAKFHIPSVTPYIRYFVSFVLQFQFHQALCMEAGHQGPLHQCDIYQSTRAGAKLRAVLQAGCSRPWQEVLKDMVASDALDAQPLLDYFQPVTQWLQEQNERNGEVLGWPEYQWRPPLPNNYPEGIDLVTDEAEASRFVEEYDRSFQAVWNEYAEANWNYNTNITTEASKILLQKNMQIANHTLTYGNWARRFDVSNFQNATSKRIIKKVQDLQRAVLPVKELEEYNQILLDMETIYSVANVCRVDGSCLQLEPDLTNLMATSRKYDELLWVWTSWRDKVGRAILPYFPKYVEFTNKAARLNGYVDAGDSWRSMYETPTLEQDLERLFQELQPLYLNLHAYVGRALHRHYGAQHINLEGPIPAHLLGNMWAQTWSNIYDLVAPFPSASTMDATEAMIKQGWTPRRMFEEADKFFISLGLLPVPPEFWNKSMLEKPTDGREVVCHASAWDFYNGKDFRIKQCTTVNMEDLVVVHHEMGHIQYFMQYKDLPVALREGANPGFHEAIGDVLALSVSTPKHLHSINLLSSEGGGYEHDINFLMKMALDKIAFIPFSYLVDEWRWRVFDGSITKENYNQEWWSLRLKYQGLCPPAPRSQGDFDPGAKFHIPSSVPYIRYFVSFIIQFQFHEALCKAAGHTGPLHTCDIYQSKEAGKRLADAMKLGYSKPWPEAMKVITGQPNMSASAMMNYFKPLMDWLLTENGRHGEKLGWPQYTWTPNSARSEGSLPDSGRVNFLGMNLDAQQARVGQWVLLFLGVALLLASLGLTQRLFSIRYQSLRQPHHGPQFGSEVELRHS
Nature of the assay: ACE inhibitory activity (HHL substrate, RP-HPLC of hippuric acid). The assay is classed as biochemical. The text has this:
Wheat gluten was obtained from CF Haishi Biotechnology Ltd. Co. (Beijing, China) and kept in sealed plastic bags at room temperature until use. Alcalase 2.4L (2.4 AU/g) was purchased from Novo Nordisk (Copenhagen, Denmark). Protex 7L (1600 AU/g) and α-amylase (26,000 RAU/g) were bought from Genencor Division of Danisco (Rochester, NY, USA). Fluorescein sodium salt, Trolox, DPPH, 2,2′-azobis(2-methylpropionamidine) dihydrochloride (AAPH), hippuryl-histidyl-leucine (HHL), hippuric acid (HA), and ACE (from rabbit lung) were obtained from Sigma-Aldrich Co. (St. Louis, MO, USA). The ABTS assay kit was supplied by Beyotime Biotechnology (Haimen, China). Acetonitrile and methanol were provided by Fisher Scientific (Pittsburgh, PA, USA). Trifluoroacetic acid (TFA) was supplied by Alfa Aesar (Ward Hill, MA, USA). Synthesized peptides were obtained from Scilight Biotechnology Co., Ltd (Beijing, China). The purity of the synthesized peptides was more than 98% according to HPLC analysis. All other chemicals were of analytical grade.
The modified approach of Cushman and Cheung[68] was used to analyze ACE inhibitory activity. Briefly, the preincubation of 20 µL of sample and 30 µL of ACE solution (60 mU/mL) was performed at 37 °C for 5 min. After adding 50 µL of the substrate (7.6 mmol/L HHL in 50 mmol/L sodium borate buffer containing 300 mmol/L NaCl at pH 8.3), the 30-min incubation of the mixture was performed at ambient temperature. The reaction was ceased with 100 µL of 1.0 mol/L HCl. RP-HPLC was employed to determine the amount of HA liberated by ACE on an Inertsil ODS-SP C18 column (4.6 mm × 150 mm, Shimadzu, Kyoto, Japan). The peak area was subject to the calculation of ACE inhibitory activity.

The subject of a further assay is ACE. The following applies: cited from earlier work.
Assay [1] addresses T2, angiotensin I-converting enzyme (ACE) from rabbit lung (rabbit) (UniProt P12822).
T2 sequence: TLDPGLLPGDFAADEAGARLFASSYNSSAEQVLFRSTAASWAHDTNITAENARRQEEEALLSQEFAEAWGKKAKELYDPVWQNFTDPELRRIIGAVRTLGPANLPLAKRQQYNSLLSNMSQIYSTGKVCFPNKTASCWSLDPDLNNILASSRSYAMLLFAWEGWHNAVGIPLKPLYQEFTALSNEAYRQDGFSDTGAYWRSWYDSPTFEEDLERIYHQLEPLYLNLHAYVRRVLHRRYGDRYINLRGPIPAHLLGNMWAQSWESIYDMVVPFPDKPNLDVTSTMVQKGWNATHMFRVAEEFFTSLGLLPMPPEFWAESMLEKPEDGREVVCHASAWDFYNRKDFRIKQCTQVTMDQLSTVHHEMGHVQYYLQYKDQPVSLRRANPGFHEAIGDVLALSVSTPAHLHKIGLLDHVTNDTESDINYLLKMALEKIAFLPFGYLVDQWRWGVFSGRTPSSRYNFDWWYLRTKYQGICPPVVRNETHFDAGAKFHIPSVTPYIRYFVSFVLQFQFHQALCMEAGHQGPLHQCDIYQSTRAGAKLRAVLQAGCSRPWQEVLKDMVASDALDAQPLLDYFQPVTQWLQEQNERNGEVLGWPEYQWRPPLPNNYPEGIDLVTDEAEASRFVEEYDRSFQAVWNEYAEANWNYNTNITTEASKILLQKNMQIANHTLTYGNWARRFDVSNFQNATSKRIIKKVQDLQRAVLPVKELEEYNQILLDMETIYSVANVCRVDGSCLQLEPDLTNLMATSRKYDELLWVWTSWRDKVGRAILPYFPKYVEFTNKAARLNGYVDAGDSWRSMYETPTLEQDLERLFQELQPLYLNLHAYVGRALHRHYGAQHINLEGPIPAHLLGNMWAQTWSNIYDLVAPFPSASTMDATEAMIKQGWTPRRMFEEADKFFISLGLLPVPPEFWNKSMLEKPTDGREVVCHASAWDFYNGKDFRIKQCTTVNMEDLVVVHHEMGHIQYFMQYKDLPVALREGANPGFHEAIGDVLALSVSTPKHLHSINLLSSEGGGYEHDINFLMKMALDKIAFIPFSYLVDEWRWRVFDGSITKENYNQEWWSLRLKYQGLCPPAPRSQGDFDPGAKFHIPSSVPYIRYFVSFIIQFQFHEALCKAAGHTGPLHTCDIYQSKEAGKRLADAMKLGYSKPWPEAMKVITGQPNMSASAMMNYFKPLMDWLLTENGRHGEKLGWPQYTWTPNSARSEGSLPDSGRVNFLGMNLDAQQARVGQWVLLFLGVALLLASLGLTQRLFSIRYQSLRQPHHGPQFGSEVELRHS

The mark [2] stands for this setting: calculated from mmol/L values, read-out: ACE IC50 calculated in the units of mg/mL (converted).
[3] abbreviates: synthesized peptides, read-out: ACE IC50.

Like-named read-outs stand apart in the source and are kept apart here. Residues, ends and D or L forms follow the SMILES beside them.

Regarding `C[C@H](N)C(=O)N1CCC[C@H]1C(=O)N[C@@H](CO)C(=O)N[C@@H](Cc1ccc(O)cc1)C(=O)O` [Ala-Pro-Ser-Tyr] (H-APSY-OH), the IC50 at ACE (from rabbit lung) (setting [2]) was 1.47 mM; at ACE (from rabbit lung) (setting [3]), 1.47 ± 0.08 mM.
With `N=C(N)NCCC[C@H](N)C(=O)NCC(=O)NCC(=O)N[C@@H](Cc1ccc(O)cc1)C(=O)O` [Arg-Gly-Gly-Tyr] (H-RGGY-OH), the IC50 is 1.48 mM on ACE (from rabbit lung) (setting [2]) and 1.48 ± 0.11 mM at ACE (from rabbit lung) (setting [3]).
For the molecule `CC(C)C[C@H](N)C(=O)N[C@H](C(=O)N[C@@H](CO)C(=O)O)C(C)C` [Leu-Val-Ser] (H-Leu-Val-Ser-OH), the IC50 at ACE (from rabbit lung) (setting [2]) is 0.599 mM; on ACE (from rabbit lung) (setting [3]), 0.6 ± 0.03 mM.
As to `NC(=O)CC[C@H](NC(=O)[C@@H](N)Cc1ccc(O)cc1)C(=O)O` [Tyr-Gln] (H-Tyr-Gln-OH), the IC50 on ACE (from rabbit lung) (setting [2]) is 2 mM; at ACE (from rabbit lung) (setting [3]), 2 ± 0.13 mM.
Regarding “Ala-His-Ser-Tyr (AHSY; printed: Ala-His-Ser-Tyr)”, the IC50 in the assay on ACE (isolated from cuttlefish) is 0.0116 mM.
Gly-Gly-Tyr: the IC50 with ACE is 0.0013 mM.
With Leu-Tyr (peptide), the IC50 of ACE inhibitory activity (hippuric acid liberated from HHL by ACE, RP-HPLC) in assay [1] amounted to 0.31 mM.
Consider Leu-Val-Ser (peptide), for which the IC50 of ACE inhibitory activity (hippuric acid liberated from HHL by ACE, RP-HPLC) in assay [1] stood at 0.6 mM.
Turning to Tyr-Gln (peptide), in assay [1], the IC50 of ACE inhibitory activity (hippuric acid liberated from HHL by ACE, RP-HPLC) amounted to 2 mM.
Take RGGY [Arg-Gly-Gly-Tyr]: in assay [1], the IC50 of ACE inhibitory activity (hippuric acid liberated from HHL by ACE, RP-HPLC) is 1.48 mM.
APSY [Ala-Pro-Ser-Tyr]: in assay [1], the IC50 of ACE inhibitory activity (hippuric acid liberated from HHL by ACE, RP-HPLC) worked out at 1.47 mM.
